Assay results as given in article PMC5659129, “Determinants of the Inhibition of DprE1 and CYP2C9 by Antitubercular Thiophenes” (Angewandte Chemie (International Ed. in English), 2017).
≈ marks a conversion by molar mass, not a printed value.

System: Mtb Y314C mutant strain
Format: cell-based, Mycobacterium tuberculosis

SMILES	MIC Y314C
CCOC(=O)NC(=O)c1ccsc1NC(=O)c1nc2cnccc2s1 [TCA007]	2.4 ± 0.34 µM (≈ 0.903 µg/mL)
CCOC(=O)NC(=O)c1ccsc1NC(=O)c1nc2ccccc2s1 [TCA1]	5.4 ± 0.32 µM (≈ 2.03 µg/mL)
O=C(Nc1sccc1C(=O)Nc1ncccn1)c1nc2cnccc2s1 [TCA020]	17 ± 1.1 µM (≈ 6.5 µg/mL)
Cc1ccnc(NC(=O)c2ccsc2NC(=O)c2nc3cnccc3s2)n1 [TCA787]	14 ± 1.4 µM (≈ 5.55 µg/mL)
CCOC(=O)NC(=O)c1cc(F)sc1NC(=O)c1nc2ccccc2s1 [TCA481]	1.4 ± 0.086 µM (≈ 0.551 µg/mL)
